Patent US20260107927A1, “ZEBRAFISH ANIMAL MODEL FOR INFLAMMATORY DISEASES AND METHOD FOR SCREEING ANTI-INFLAMMATORY AGENTS USING SAME” (RAYDEL KOREA CO., LTD., priority 2022, published 2026)

Legend:
interleukin-6 (IL-6) = assay: Plasma interleukin-6 after CML with or without test substances; format: in vivo, zebrafish (Danio rerio); conditions: FIG. 17
Procedure: (§1) Blood was collected from zebrafish in each group, plasma was isolated, and total cholesterol (TC) and triglyceride (TG) were analyzed. Blood was collected from zebrafish in each group, plasma was isolated, and serum amyloid A (SAA), a biomarker of hepatitis induction, interleukin-6 (IL-6), a factor that induces an acute cytokine storm in the liver, and tumor necrosis factor-α (TNF-α), an inflammatory cytokine involved in liver inflammation were analyzed.

zebrafish adults [1] = assay: Intraperitoneal CML injection into zebrafish adults: swimming ability, acute paralysis, survival
Procedure: Movements of 10 zebrafish adults (16±3 weeks old) injected intraperitoneally with CML (250 μg, 10 μL) solution (final conc. of CML: 3 mM) and 10 zebrafish adults injected with PBS were observed 30 minutes and 1 hour after injection.

serum amyloid A (SAA) = assay: Plasma serum amyloid A after CML with or without test substances; format: in vivo, zebrafish (Danio rerio); conditions: FIG. 16
Procedure: as §1

[2] = system: liver tissue of zebrafish adults; assay: Hematoxylin-eosin (H&E) staining of liver tissue: inflammatory cell infiltration; format: in vivo, zebrafish (Danio rerio)
Procedure: To compare the degree of acute cytokine storm induction by CML and alleviation, hematoxylin-eosin (H&E) staining was performed on zebrafish adults of the PBS-injected and CML-injected groups, and the degree of inflammatory cell infiltration in the liver tissue was investigated.
That is, the inhibitory effect of the IL-6 inhibitor Actemra (Tocilizumab) on inflammation caused by CML-induced glycation toxicity was greater than that of the TNF-α inhibitor Remsima (Infliximab).

zebrafish embryos [3] = assay: CML microinjection into zebrafish embryos: survival rate and embryo development; format: in vivo, zebrafish (Danio rerio)
Procedure: The present inventors constructed a zebrafish embryonic animal model microinjected with CML to establish an acute cytokine storm induction system. After confirming under a microscope that the freshly spawned zebrafish embryos were 30 minutes post-fertilization (0.5 hour post fertilization (0.5 hpf)), the fertilized embryos that were dividing normally were selected. […] The tip of the needle was sharpened by cutting it diagonally using a sharp forcep, a hole was made, and 5 μL of injection cocktail solution was added to the microglass needle.
(§2) Eggs were densely packed and arranged at appropriate intervals on a 1% agarose gel with grooves of appropriate spacing to facilitate rapid microinjection. A microglass needle was attached to a microinjector (PV-830, World Precision Instruments, Sarasota, FL, USA), 5 μL of mineral oil was spread on a graduated hematocytometer, the needle was placed on top of it, and the contents were injected. The size of the bubble formed was measured and calibrated to the desired volume, after which it was injected into zebrafish embryos at the 2-cell and 4-cell stages.
At this time, in order to minimize errors in the microinjection process, microinjection was performed as much as possible into the yolk area. After microinjection, the embryos were separated from the agarose gel and placed in a Petri dish, which was then filled with 20 mL of egg water (0.02 mg/L methylene blue) and stored at 28° C.
To compare the survival rates of zebrafish embryos, the inventors prepared a non-injected group (No injection), a PBS-injected control group (PBS control), and a CML-injected group.

[4] = system: tumor necrosis factor-α (TNF-α); assay: Plasma tumor necrosis factor-α after CML with or without test substances; format: in vivo, zebrafish (Danio rerio); conditions: FIG. 18
Procedure: as §1

zebrafish adults [5] = assay: Plasma total cholesterol (TC) and triglyceride (TG) after CML with or without test substances; format: in vivo, zebrafish (Danio rerio); conditions: for plasma triglyceride (TG) concentration: FIG. 15
Procedure: Zebrafish adults were treated with CML at a concentration of 3 mM, and Actemra (Tocilizumab) and Remsima (Infliximab) were simultaneously treated to confirm the effects of the test substances on reducing total cholesterol (TC) and triglyceride (TG).
Blood was collected from zebrafish in each group, plasma was isolated, and total cholesterol (TC) and triglyceride (TG) were analyzed.

zebrafish adults [6] = assay: Intraperitoneal CML plus test substances in zebrafish adults: recovery of swimming ability and survival; format: in vivo, zebrafish (Danio rerio); conditions: for swimming ability compared with CML injected group / recovery of ability to swim compared with CML injected group: co-injected with CML; for swimming ability compared with CML injected group: 30 minutes after injection; for survival rate of zebrafish adults: combined treatment with CML, FIG. 11
From the text: The cytokine storm suppression ability of the test substances was compared by confirming the swimming ability of zebrafish of the groups injected with PBS, CML, CML and Remsima (Infliximab), and CML and Actemra (Tocilizumab) via intraperitoneal administration (FIG. 9).
The effects of the test substances in the CML and Remsima (Infliximab) injected group and the CML and Actemra (Tocilizumab) injected group were compared.

zebrafish embryos [7] = assay: Combined microinjection of CML with test substances into zebrafish embryos: survival rate and development; format: in vivo, zebrafish (Danio rerio); conditions: for survival rate of embryos: co-injected with 500 ng CML, 43 ng Remsima or 44 ng Actemra, after 24 hours, FIG. 3; for rate of development: co-injected with CML, 25 hours post-injection; for rate of development / developmental defects: FIG. 4; for developmental defects: microinjected mixture with CML
Procedure: The present inventors constructed a zebrafish embryonic animal model microinjected with CML to establish an acute cytokine storm induction system. After confirming under a microscope that the freshly spawned zebrafish embryos were 30 minutes post-fertilization (0.5 hour post fertilization (0.5 hpf)), the fertilized embryos that were dividing normally were selected. A capillary glass tube (TW100F-4, World Precision Instruments, Sarasota, FL, USA) was inserted into a micro-glass needle maker (PC-10, Narishege, Tokyo, Japan), and the coil was adjusted to be in the center of the capillary glass tube, and then a needle was made at a temperature of 71.3° C. The tip of the needle was sharpened by cutting it diagonally using a sharp forcep, a hole was made, and 5 μL of injection cocktail solution was added to the microglass needle.
as §2
At this time, in order to minimize errors in the microinjection process, microinjection was performed as much as possible into the yolk area. After microinjection, the embryos were separated from the agarose gel and placed in a Petri dish, which was then filled with 20 mL of egg water (0.02 mg/L methylene blue) and stored at 28° C. All injection processes were performed under a stereomicroscope (SMZ-168, Motic, Hong Kong) at 20× magnification.

[8] = CML-injected embryos, about 25 hours post-fertilization
[9] = treated simultaneously with CML
[10] = treated simultaneously with CML, FIGS. 12 and 13
[11] = intraperitoneal, 1 hour after injection, FIG. 9

Molecule | IL-6 (interleukin-6 (IL-6); [9]) [pg/mL] | serum amyloid A (SAA) (serum amyloid A (SAA); [9]) [ng/mL] | inflammatory cell infiltration in liver tissue [2, 10] | TNF-α [4, 9] [ng/mL] | swimming ability compared with CML injected group (zebrafish adults [6]; intraperitoneal, FIG. 9) | recovery of ability to swim compared with CML injected group (zebrafish adults [6]; [11]) | survival rate of zebrafish adults (zebrafish adults [6]) | survival rate of embryos (zebrafish embryos [7]) [%] | rate of development (zebrafish embryos [7]) | developmental defects (zebrafish embryos [7]) | further results
N[C@@H](CCCCNCC(=O)O)C(=O)O [CML, N-ε-carboxymethyllysine] |  |  |  |  |  |  |  |  |  |  | IL-6 (interleukin-6 (IL-6); CML alone): 76.4 ± 6.1 pg/mL; zebrafish that recovered the ability to swim (zebrafish adults [1]; CML 250 μg intraperitoneal (final 3 mM), 1 hour after injection, FIGS. 5 and 6): 25%; movement / swimming ability (zebrafish adults [1]; CML 250 μg, 10 μL intraperitoneal (final 3 mM), first 30 minutes after injection): immobilized and lying on the bottom; survival rate of zebrafish adults (zebrafish adults [1]; CML alone, intraperitoneal, after 60 minutes, FIG. 8): less than 49%; serum amyloid A (SAA) (serum amyloid A (SAA); CML alone): 59.7 ± 1.6 ng/mL; inflammatory cell infiltration in liver tissue ([2]; CML alone, FIGS. 12 and 13): approximately 23%; inflammatory cell infiltration in liver tissue ([2]; CML only injection group, FIG. 8): 27%; survival rate of zebrafish embryos (zebrafish embryos [3]; 500 ng CML microinjected (20 nL, 25 mg/mL in PBS), 24 hours, FIG. 1): 23.5%; developmental stage of embryos (zebrafish embryos [3]; 25 hours after CML injection, FIG. 2): 21-somite stage; developmental morphology (zebrafish embryos [3]; CML-injected embryos): developmental malformations were present in the head and tail; developmental state, equivalent time after fertilization (zebrafish embryos [3]; [8]): about 19.5 hours after fertilization; number of somites (zebrafish embryos [3]; [8]): about 21; TNF-α ([4]; CML alone): 43.5 ± 0.4 ng/mL; plasma total cholesterol (TC) concentration (zebrafish adults [5]; CML alone, 3 mM, FIG. 14): highest; plasma triglyceride (TG) concentration (zebrafish adults [5]; CML alone, 3 mM): highest; number of zebrafish showing recovery of swimming ability (zebrafish adults [6]; CML group, 3 mM intraperitoneal, 1 hour after injection, FIG. 9): 2 to 3
Actemra: biopharmaceutical, an IL-6 inhibitor, used as treatment agent for rheumatoid arthritis | 51.8 ± 1.8 | 38.8 ± 2.0 | 15-17% | 6.8 ± 2.6 | More zebrafish | more zebrafish had regained the ability to swim | approximately 97% | 53.1 | almost the same rate of development as embryos injected with PBS | no developmental defects were observed | plasma triglyceride (TG) concentration (zebrafish adults [5]; treated simultaneously with 3 mM CML): lowest; recovery of swimming ability and survival rate compared with 43 μg Remsima (zebrafish adults [6]; 44 μg Actemra with CML, intraperitoneal, FIGS. 10 and 11): recovery of swimming ability was better and survival rate was increased
Remsima: biopharmaceutical, a TNF-α inhibitor, used as treatment agent for rheumatoid arthritis | 62.8 ± 3.1 | 41.2 ± 5.3 | approximately 23% | 41.6 ± 5.8 | More zebrafish | more zebrafish had regained the ability to swim | 63% | 38.4 | almost the same rate of development as embryos injected with PBS | no developmental defects were observed | 
